How the values were obtained:
ELIC-α1^W246LGABAAR = ELIC-α1^W246LGABAAR (Homo sapiens, UniProt P14867, W273L); test: biochemical; assay type: binding
Protocol: ELIC-α1GABAAR was expressed and purified according to a previously published protocol ([Q. Chen et al., 2018]). The purified protein was aliquoted and stored at −80°C. Mutagenesis was performed as described in previous reports ([Kinde et al., 2016]) by oligonucleotide-directed mutagenesis using Phu polymerase (Thermo Fisher Scientific, Waltham, MA, USA) verified by sequencing. ELIC-α1GABAAR was expressed in OverExpress™ C43(D3) E. coli, derived from Rosetta™(DE3) cells under double selection with kanamycin and chloramphenicol for ELIC-α1GABAAR.
One hundred microlitres of purified ELIC-α1GABAAR (0.3 μM in Buffer A + 0.015% DDM) was transferred into a 50-μl window quartz cuvette (Starna Cells, Atascadero, CA, USA), which was placed in a cuvette holder maintained at 4°C. […] Two microlitres of NaI (AK Scientific, Union City, CA, USA; 5-M stock prepared in 0.1-Mm sodium hydrosulfite [Sigma-Aldrich, St. Louis, MO, USA]) was added to the protein (final concentration = 100 mM) and incubated for 10 min to reduce the fluorescence emission from hydrophilic tryptophans. To measure the concentration–dependent effects of NS on tryptophan fluorescence, 1 μl of NS from each 100× stock solution was sequentially added to the NaI-equilibrated protein and thoroughly mixed to achieve concentrations from 0.01 to 50 μM. […]

α1β3 GABAA receptors = molecular target: T1, α1β3 GABAA receptors (Homo sapiens, UniProt P14867+P28472); test: Two-electrode voltage clamp of GABA-elicited currents in Xenopus oocytes; assay type: cell-based; details: low GABA; wild-type α1β3
T1 construct: expressed in transfected cells; host or cells: Xenopus laevis oocytes, cRNA injected 5:1 (α1:β3)
T1 sequence (P14867 28-456): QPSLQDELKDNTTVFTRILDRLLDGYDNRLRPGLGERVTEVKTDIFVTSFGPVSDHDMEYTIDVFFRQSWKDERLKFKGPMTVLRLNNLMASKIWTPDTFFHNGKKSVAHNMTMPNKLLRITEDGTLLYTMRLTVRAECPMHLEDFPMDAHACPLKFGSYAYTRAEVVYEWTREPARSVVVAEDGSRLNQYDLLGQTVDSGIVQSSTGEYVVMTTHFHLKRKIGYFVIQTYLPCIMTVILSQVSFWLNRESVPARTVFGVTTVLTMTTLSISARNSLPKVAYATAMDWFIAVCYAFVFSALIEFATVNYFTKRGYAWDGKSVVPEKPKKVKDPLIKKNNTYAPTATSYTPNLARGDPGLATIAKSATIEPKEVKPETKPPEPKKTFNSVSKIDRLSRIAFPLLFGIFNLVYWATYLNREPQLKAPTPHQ
T1 sequence (P28472 26-473): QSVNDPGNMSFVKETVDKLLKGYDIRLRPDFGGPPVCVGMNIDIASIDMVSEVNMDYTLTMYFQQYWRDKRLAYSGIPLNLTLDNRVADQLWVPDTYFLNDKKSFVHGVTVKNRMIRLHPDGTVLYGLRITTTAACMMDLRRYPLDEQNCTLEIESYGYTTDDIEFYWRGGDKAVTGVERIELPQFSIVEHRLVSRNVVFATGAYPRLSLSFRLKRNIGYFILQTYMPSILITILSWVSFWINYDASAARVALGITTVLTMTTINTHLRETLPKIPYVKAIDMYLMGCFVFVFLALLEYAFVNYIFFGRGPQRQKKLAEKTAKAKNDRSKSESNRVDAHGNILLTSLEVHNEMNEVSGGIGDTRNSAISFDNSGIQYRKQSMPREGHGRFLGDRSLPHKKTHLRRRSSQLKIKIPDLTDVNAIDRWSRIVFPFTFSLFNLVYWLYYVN
Protocol: Receptor expression and electrophysiological recordings were conducted as described in detail previously ([Sugasawa et al., 2020]). In brief, α1β3 GABAA receptors were expressed in oocytes from the African clawed frog (X. laevis). The wild-type α1 and β3 subunits were of human origin (Genbank accession numbers NM_000806.5 and NM_000814.5, respectively). The α1 clone containing the Q-to-L mutation to the classic neurosteroid binding site ([Hosie et al., 2006]) was of rat origin. (The glutamine residue in ELIC-α1GABAAR is Q242, whereas the corresponding residue in rat α1 is Q241. For simplicity, the residue is referred to as Q242 for both rat and ELIC-α1GABAAR.) The oocytes were purchased as quarter ovaries from Xenopus1 (Dexter, MI, USA). Following digestion in 2% w/v (mg·ml^−1) collagenase A, the oocytes were injected with a total of 12 ng cRNA per oocyte in a 5:1 ratio (α1:β3) and incubated at 15°C for 2–3 days prior to electrophysiological recordings in ND96 (96-mM NaCl, 2-mM KCl, 1.8-mM CaCl2, 1-mM MgCl2, 5-mM HEPES; pH 7.4) supplemented with 100 U·ml^−1 penicillin and 100 μg·ml^−1 streptomycin.
Electrophysiological recordings were conducted at ≈22°C using standard two-electrode voltage clamp. The voltage and current electrodes (G120F-4, OD = 1.20 mm, ID = 0.69 mm; Warner Instruments, Hamden, CT, USA) were filled with 3-M KCl and had resistances of 0.3–1 MΩ. The oocytes were clamped at −60 mV. The chamber (RC-1Z; Warner Instruments) was perfused with ND96 at 5–8 ml·min^−1. Solutions were gravity-applied. The current responses were amplified with an Axoclamp 900A (Molecular Devices, San Jose, CA, USA) or OC-725C amplifier (Warner Instruments), digitized with a Digidata 1200 series digitizer (Molecular Devices) and stored on PC hard drive using pClamp (Molecular Devices; RRID:SCR_011323). Current amplitudes were determined using Clampfit (Molecular Devices).
A standard experiment consisted of a several-minute long applications of GABA followed immediately by a co-application of GABA + modulator and a wash in GABA. For normalization purposes, each cell was exposed to the combination of saturating (1-mM) GABA + 50-μM propofol, assumed to fully activate all receptors in the cell ([Eaton et al., 2016]).

Sequence of ELIC-α1^W246LGABAAR (P14867 other isoform, or with tags, fused parts or gaps W273L): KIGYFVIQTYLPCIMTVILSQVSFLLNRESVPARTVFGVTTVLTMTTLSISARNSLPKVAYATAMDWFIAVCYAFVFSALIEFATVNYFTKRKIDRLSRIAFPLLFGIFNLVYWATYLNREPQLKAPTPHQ
Sequence of ELIC-α1^W246LGABAAR (P0C7B7 1-198, further chain): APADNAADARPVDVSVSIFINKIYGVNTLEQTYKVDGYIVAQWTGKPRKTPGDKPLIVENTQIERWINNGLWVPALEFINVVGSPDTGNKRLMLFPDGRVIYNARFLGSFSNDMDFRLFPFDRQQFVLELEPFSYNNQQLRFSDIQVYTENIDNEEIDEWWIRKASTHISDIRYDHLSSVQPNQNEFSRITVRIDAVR

CC(=O)[C@H]1CC[C@H]2[C@@H]3CC[C@H]4C[C@@H](O)CC[C@]4(C)[C@H]3CC[C@]12C [Epi-AlloP, epi-allopregnanolone]
IC50 (ELIC-α1^W246LGABAAR): 340 ± 130 nM | potentiation of GABA-elicited currents (α1β3 GABAA receptors): do not

Reference: paper PMC11585924, “Direct measurements of neurosteroid binding to specific sites on GABAA receptors” (British journal of pharmacology, 2024)
